One data set deals with MNT-1. The experiment in a line: cells. The note with it: Homo sapiens, MNT-1, 96 h.
A short description of the next data set: in vitro. Particulars: human, MNT-1 cells.
Data set [1] addresses T1, Tyrosinase (Homo sapiens, UniProt P14679).
T1 sequence (P14679 whole entry): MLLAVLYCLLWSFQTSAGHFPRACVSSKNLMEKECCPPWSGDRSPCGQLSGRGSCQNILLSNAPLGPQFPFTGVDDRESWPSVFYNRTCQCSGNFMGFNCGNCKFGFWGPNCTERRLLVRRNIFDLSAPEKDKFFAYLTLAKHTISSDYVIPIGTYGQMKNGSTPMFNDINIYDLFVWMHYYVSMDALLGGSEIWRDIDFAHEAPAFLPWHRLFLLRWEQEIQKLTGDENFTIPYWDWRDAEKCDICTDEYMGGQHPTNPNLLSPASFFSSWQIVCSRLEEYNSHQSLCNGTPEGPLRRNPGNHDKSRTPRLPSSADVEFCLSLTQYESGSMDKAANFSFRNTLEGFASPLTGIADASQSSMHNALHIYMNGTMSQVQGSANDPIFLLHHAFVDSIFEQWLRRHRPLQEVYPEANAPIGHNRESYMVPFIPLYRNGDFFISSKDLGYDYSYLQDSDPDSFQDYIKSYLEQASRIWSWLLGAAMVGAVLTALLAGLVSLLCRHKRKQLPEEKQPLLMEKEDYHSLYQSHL

Data set [2] concerns the target T1, Tyrosinase. The source holds these as a separate data set.
Another data set addresses Mushroom tyrosinase (Agaricus bisporus, UniProt O42713+Q00024+C7FF04+C7FF05).
Data set [3] has as its target T1, Tyrosinase. The experiment in a line: Inhibition of human tyrosinase.
Compound in data set [4]: O=C1/C(=C/c2ccc(O)cc2O)Cc2c(O)cccc21
The class given is cell-based. The note with it: Homo sapiens; HEK293T; dose 0-8 µM, time 1.0 hrs.

Compound in data set [5]: O=C1/C(=C/c2ccc(O)cc2O)Oc2c(O)cccc21
The class given is cell-based. The note with it: Homo sapiens; HEK293T; dose 0-8 µM, time 1.0 hrs.

Compound in data set [6]: O=C1/C(=C/c2ccc(O)cc2O)Cc2c(O)cccc21
The class given is cell-based. Particulars: Homo sapiens; HEK293T; dose 0-8 µM, time 1.0 hrs. This is another data set of the same source.

Compound in data set [7]: O=C1/C(=C/c2ccc(O)cc2O)Oc2c(O)cccc21
The class given is cell-based. The note with it: Homo sapiens; HEK293T; dose 0-8 µM, time 1.0 hrs. This is another data set of the same source.

Compound in data set [8]: O=C1/C(=C/c2ccc(O)cc2O)Cc2c(O)cccc21
The class given is cell-based. The note with it: Homo sapiens; HEK293T; dose 0-8 µM, time 1.0 hrs. The source holds these as a separate data set.

Compound in data set [9]: O=C1/C(=C/c2ccc(O)cc2O)Oc2c(O)cccc21
The class given is cell-based. Particulars: Homo sapiens; HEK293T; dose 0-8 µM, time 1.0 hrs. This is another data set of the same source.

The term IC50 denotes the midpoint of a concentration-inhibition curve. Lower therefore signals inhibition by little substance. One may read the CC50 as the concentration at which the toxic effect on the cells reaches its halfway point. A higher CC50 goes with lower toxicity to the cells. Broadly, the Ki is the equilibrium dissociation constant of an inhibitor or competing ligand from its target. As usually defined, the Km is the substrate concentration at which the rate is half of its maximum. Broadly, the Vmax is the top rate of the reaction or transport when substrate is in excess. What is called kcat is the number of substrate molecules converted per active site and unit of time at saturation.

Description for MNT-1: Inhibition of melanogenesis in human MNT-1 cells incubated for 96 hrs
Description for in vitro: Cytotoxicity against human MNT-1 cells

Consider `O=C1/C(=C/c2ccc(O)cc2O)Cc2c(O)cccc21`, for which the IC50 with MNT-1 was 29 µM; against Tyrosinase [2] it was 1.6 µM. Also, the 50% cytotoxic concentration (CC50) in “in vitro” was 91 µM. Besides, the Ki at Tyrosinase [1] was 0.25 µM.
In the case of `O=C1/C(=C/c2ccc(O)cc2O)Cc2cc(O)ccc21`, on Tyrosinase [2], the IC50 was 3.4 µM.
On to `O=C1/C(=C/c2ccc(O)cc2O)Oc2c(O)cccc21`, for which the half-maximal inhibitory concentration (IC50) is 32 µM in the data set on MNT-1 and 1.57 µM against Tyrosinase [2]. Besides, the 50% cytotoxic concentration (CC50) in “in vitro” amounted to 108 µM. On Tyrosinase [1], this molecule had an inhibition constant (Ki) of 0.55 µM.
As for `COc1cc(O)ccc1/C=C1\Oc2cc(O)ccc2C1=O`, the IC50 against Tyrosinase [2] is > 100 µM.
On the same count and under the same terms, in the case of `O=C(/C=C/c1ccc(O)cc1O)c1ccccc1` it was 60 µM; in that of `COc1cccc2c1O/C(=C\c1ccc(O)cc1O)C2=O`, 80 µM.
Take `O=C1/C(=C/c2ccc(O)cc2O)Sc2c(O)cccc21`: on Tyrosinase [2], the IC50 is 48 µM.
For `O=C1/C(=C/c2ccc(O)cc2O)Nc2cc(O)ccc21`, 2.3 µM corresponded to half-maximal inhibition against Tyrosinase [2] (IC50).
`O=c1cc(-c2ccc(O)cc2O)oc2ccccc12`: the 50% inhibitory concentration (IC50) against Tyrosinase [2] is > 100 µM.
Regarding `O=c1c2ccccc2[nH]n1Cc1ccc(O)cc1O`, the IC50 against Tyrosinase [2] was > 100 µM.
For `CN(C)c1cc(O)c2c(c1)O/C(=C\c1ccc(O)cc1O)C2=O`, the midpoint of inhibition at Tyrosinase [2], the IC50, lay at 18.4 µM.
On the same count and under the same terms, in the case of `CC1/C(=C\c2ccc(O)cc2O)C(=O)c2ccccc21` (centres undefined) it was 8.2 µM; in that of `Cc1c(O)ccc2c1O/C(=C\c1ccc(O)cc1O)C2=O`, 80 µM; in that of `O=C1/C(=C/c2ccc(O)cc2O)Cc2ccccc21`, 5.8 µM.
On Tyrosinase [2], `O=C1/C(=C/c2ccc(O)cc2O)Oc2c1ccc(O)c2I` yielded an IC50 of 32 µM.
Consider `O=C1/C(=C/c2ccc(O)cc2O)Oc2cc(O)cc(O)c21`, for which the half-maximal inhibitory concentration (IC50) against Tyrosinase [2] is 7.7 µM.
As to `O=C1/C(=C/c2ccc(O)cc2O)Oc2cc(F)cc(F)c21`, the IC50 against Tyrosinase [2] came to 88 µM.
On to `CN(C)c1ccc2c(c1)O/C(=C\c1ccc(O)cc1O)C2=O`, for which, on Tyrosinase [2], the 50% inhibitory concentration (IC50) was > 100 µM.
On Mushroom tyrosinase, `O=C1/C(=C/c2ccc(=O)n(O)c2)Oc2cc(O)ccc21` displayed a Ki of 1.27 µM. The molecule also gave an IC50 against Tyrosinase [2] of 15 µM.
`O=C1c2ccccc2C(=O)N1Cc1ccc(O)cc1O`: on Tyrosinase [2], the IC50 was > 100 µM.
`O=C1/C(=C/c2ccc(O)cc2O)Sc2ccccc21` showed an IC50 on Tyrosinase [2] of 5.9 µM.
On Tyrosinase [2], `O=C1/C(=C/c2ccc(O)cc2O)Oc2c1ccc(O)c2O` came in with an IC50 of 11.8 µM.
On the same count and under the same terms, with `CCCCOc1ccc2c(c1)O/C(=C\c1ccc(O)cc1O)C2=O` the figure was > 100 µM; with `O=C1/C(=C/c2ccc(O)cc2O)Oc2ccccc21`, 18 µM; with `O=C1/C(=C/c2ccc(O)cc2O)Nc2ccccc21`, 12.7 µM.
Turning to `COc1cc(OC)c2c(c1)O/C(=C\c1ccc(O)cc1O)C2=O`, the half-inhibitory concentration (IC50) on Tyrosinase [2] was > 100 µM.
In the case of `O=C1/C(=C/c2ccc(O)cc2O)Sc2cc(O)ccc21`, the IC50 against Tyrosinase [2] was found to be 5.8 µM.
The molecule `O=C1/C(=C/c2ccc(O)cc2O)Oc2cccc(O)c21` gave an IC50 against Tyrosinase [2] of 25 µM.
Still for that read-out and setting: with `O=C1/C(=C/c2ccc(O)cc2O)Oc2cc(Cl)ccc21` the figure was > 100 µM; with `O=C1/C(=C/c2ccc(O)cc2O)Oc2ccc(O)cc21`, 19 µM.
As for `CCCCc1ccc(O)cc1O` [RUCINOL], 8.3 µM corresponded to half-maximal inhibition on Tyrosinase [2] (IC50).
The molecule `COc1ccc2c(c1)O/C(=C\c1ccc(O)cc1O)C2=O` had an IC50 at Tyrosinase [2] of 6.9 µM.
Same read-out and setting: in the case of `O=C1C(=Cc2ccc(O)cc2O)C(=O)c2ccccc21` it was > 100 µM.
For the molecule `Cc1c(C(=O)c2ccc(O)cc2O)oc2c(O)cccc12`, the IC50 at Tyrosinase [2] is > 100 µM.
Consider `Nc1c(C(=O)c2ccc(O)cc2O)oc2c(O)cccc12`, for which the half-maximal inhibitory concentration (IC50) against Tyrosinase [2] was > 100 µM.
Molecule `O=C1/C(=C/c2ccc(O)cc2O)Oc2cc(O)ccc21` came in with an IC50 against Tyrosinase [2] of 6.4 µM.
Same read-out and setting: with `Oc1ccc(Cc2cc3cccc(O)c3o2)c(O)c1` the figure was > 100 µM; with `COc1ccc2c(c1OC)O/C(=C\c1ccc(O)cc1O)C2=O`, > 100 µM; with `COc1ccc2c(c1C)O/C(=C\c1ccc(O)cc1O)C2=O`, > 100 µM.
As to `Oc1cccc(O)c1` [RESORCINOL], the half-inhibitory concentration (IC50) on Tyrosinase [3] was > 3000 µM.
`O=C1/C(=C/c2c(O)cc(O)cc2O)Oc2cc(O)ccc21` returned a 50% inhibitory concentration (IC50) against Tyrosinase [2] of 15 µM.

B1: Tyrosinase (Homo sapiens), P14679 (protein)
chain: MLLAVLYCLLWSFQTSAGHFPRACVSSKNLMEKECCPPWSGDRSPCGQLSGRGSCQNILLSNAPLGPQFPFTGVDDRESWPSVFYNRTCQCSGNFMGFNCGNCKFGFWGPNCTERRLLVRRNIFDLSAPEKDKFFAYLTLAKHTISSDYVIPIGTYGQMKNGSTPMFNDINIYDLFVWMHYYVSMDALLGGSEIWRDIDFAHEAPAFLPWHRLFLLRWEQEIQKLTGDENFTIPYWDWRDAEKCDICTDEYMGGQHPTNPNLLSPASFFSSWQIVCSRLEEYNSHQSLCNGTPEGPLRRNPGNHDKSRTPRLPSSADVEFCLSLTQYESGSMDKAANFSFRNTLEGFASPLTGIADASQSSMHNALHIYMNGTMSQVQGSANDPIFLLHHAFVDSIFEQWLRRHRPLQEVYPEANAPIGHNRESYMVPFIPLYRNGDFFISSKDLGYDYSYLQDSDPDSFQDYIKSYLEQASRIWSWLLGAAMVGAVLTALLAGLVSLLCRHKRKQLPEEKQPLLMEKEDYHSLYQSHL
On to B1, for which the Michaelis-Menten constant (Km) in data set [4] came out at 161 µM; in data set [5], 143 µM. Further, the Vmax came to 5.18 µmol/min/mg in data set [6] and 4.86 µmol/min/mg in [7]. The catalytic constant (kcat) in data set [8] came out at 5.78 s⁻¹; in data set [9], 5.41 s⁻¹.

Source of the values: ChEMBL document CHEMBL5352459, “Resorcinol-based hemiindigoid derivatives as human tyrosinase inhibitors and melanogenesis suppressors in human melanoma cells” (Eur J Med Chem, 2023).
